Measurements reported in patent publication US9913838B2, “Methods of treating cancer using compositions comprising perillyl alcohol derivative” (NEONC TECHNOLOGIES INC., priority 2010, dated 2018).
Entries after “also recorded” stand apart in the source; their conditions may differ.

Key:
a variant of MDA-MB-231 = experiment: In vitro sensitivity of the cell line used in vivo; type: cell-based; details: Homo sapiens, in vitro sensitivity to TMZ
HCC-1937 = experiment: Colony formation assay, HCC-1937; type: cell-based, human; details: for IC50: Homo sapiens, HCC1937, 48 h, read-out: IC50 (concentration required to decrease colony formation by 50%)
Experimental: (§1) Depending on the cell line (and plating efficiency), 200-350 cells were seeded into each well of a 6-well plate. […] Thereafter, the drugs were removed, fresh growth medium was added, and the cells were kept in culture undisturbed for 12-16 days, during which time the surviving cells spawned colonies of descendants. Colonies (defined as groups of >50 cells) were visualized by staining for 4 hours with 1% methylene blue (in methanol), and then were counted.
(§2) The cytotoxic potency of TMZ-POH, was analyzed by colony formation assay (CFA) in a variety of human breast cancer cell lines and compared to the cytotoxicity of TMZ. We used estrogen receptor positive cells MCF7 and T47D, the triple-negative lines MDA-MB-231, MDA-MB-468, and HCC-1937, and a brain-seeking variant of the 231 cell line, MDA-MB-231-br.

[1] = in vitro and in vivo; cited from earlier work
T47D = experiment: Colony formation assay, T47D; type: cell-based, human; details: for IC50: Homo sapiens, 48 h, read-out: IC50 (concentration required to decrease colony formation by 50%)
Experimental: as §1, §2

[2] = CSF versus systemic circulation; cited from earlier work
U87 human glioma cells = experiment: MTT cytotoxicity assay, U87 glioma cells; details: U87; result in words
Excerpt: In vitro efficacy of the present composition can be determined using methods well known in the art. For example, the cytoxicity of the present monoterpene (or sesquiterpene) and/or the therapeutic agents may be studied by MTT [3-(4,5-dimethylthiazol-2-yl)-2,5-diphenyl tetrazolium bromide] cytotoxicity assay. MTT assay is based on the principle of uptake of MTT, a tetrazolium salt, by metabolically active cells where it is metabolized into a blue colored formazon product, which can be read spectrometrically. J. of Immunological Methods 65: 55 63, 1983. The cytoxicity of the present monoterpene (or sesquiterpene) derivative and/or the therapeutic agents may be studied by colony formation assay. Functional assays for inhibition of VEGF secretion and IL-8 secretion may be performed via ELISA. Cell cycle block by the present monoterpene (or sesquiterpene) derivative and/or the therapeutic agents may be studied by standard propidium iodide (PI) staining and flow cytometry. Invasion inhibition may be studied by Boyden chambers. In this assay a layer of reconstituted basement membrane, Matrigel, is coated onto chemotaxis filters and acts as a barrier to the migration of cells in the Boyden chambers. Only cells with invasive capacity can cross the Matrigel barrier. Other assays include, but are not limited to cell viability assays, apoptosis assays, and morphological assays.
First cytotoxicity assays were carried out after cells were treated with dimethyl-celecoxib (DMC) alone.
Then U87, A172 and U251 cells were treated with dimethyl celecoxib bisPOH carbamate (POH−DMC) (e.g., synthesized by the method in Example 1), and the MTT cytotoxicity assays performed (FIG. 2).
First cytotoxicity assays were carried out after cells were treated with temozolomide (TMZ) alone, the standard alkylating agent used in the treatment of malignant gliomas.
Then TMZ-resistant glioma cell lines U87, A172 and U251 cells were treated with TMZ-POH (e.g., synthesized by the method in Example 3).
To compare the cytotoxicity of Rolipram POH Carbamate (POH-Rolipram) (e.g., synthesized by the method in Example 5) with rolipram, […] inducing differentiation and apoptosis in glioma cells, A172, U87, U251 and LN229 human glioma cells were treated with either POH-Rolipram or rolipram for 48 hours.

231-MGMT-1 = experiment: Colony formation assay, MGMT-transfected 231-MGMT-1; type: cell-based, human; details: for IC50: Homo sapiens, 48 h, read-out: IC50 (concentration required to decrease colony formation by 50%)
Experimental: as §1
In the case of O6-BG treatment, cells were pretreated with 10 μM O6-BG for one hour before addition of TMZ or TMZ-POH. After 24 hours, another 10 μM O6-BG was added to the medium. Another 24 hours later, drug-laced medium was removed, and fresh medium without drugs was added. Thereafter, cells remained undisturbed until staining with methylene blue.
MDA-MB-231 cells were co-transfected in 6-well plates with the use of Lipofectamine 2000 (Invitrogen, Carlsbad, Calif.) according to manufacturer's instructions. 2 μg pSV2MGMT (containing the human MGMT cDNA) was combined with 0.2 μg pSV2neo (containing the neomycin gene for selection of cells in G418). Both plasmids were provided by Bernd Kaina (Mainz, Germany). Individual clones of transfected cells were selected in medium containing 750 μg/mL G418 and propagated in 250 μg/mL G418. G418 was obtained as G418 disulfate salt from Sigma-Aldrich and dissolved in PBS at 75 mg/mL. Selection medium was removed from cells several days before experimental drug treatment.
To investigate the latter, we stably transfected MGMT-negative MDA-MB-231 cells with MGMT cDNA and isolated individual clones. […] Both clones were treated with increasing concentrations of TMZ-POH and TMZ and analyzed by CFA.

γ-H2AX [3] = experiment: Western blot of DNA damage marker in MCF7 cells; type: cell-based, human; details: MCF-7, 50 μM, 48 hours, in words
Experimental: (§3) Actin was used as a loading control.
(§4) Total cell lysates were analyzed by Western blot analysis as described in P. Pyrko et al. Downregulation of survivin expression and concomitant induction of apoptosis by celecoxib and its non-cyclooxygenase-2-inhibitory analog, dimethyl-celecoxib (DMC), in tumor cells in vitro and in vivo. Mol Cancer 5 (2006) 19. The primary antibodies were purchased from Cell Signaling Technology (Beverly, Mass.) or Santa Cruz Biotechnology, Inc. (Santa Cruz, Calif.) and used according to the manufacturers' recommendations. All immunoblots were repeated at least once to confirm the results.

CHOP = experiment: Western blot of ER stress in TMZ sensitive and resistant U251 glioma cells; type: cell-based, human
Experimental: Western blots were performed after TMZ sensitive and resistant glioma cells were treated with the TMZ-POH conjugate for 18 hr.

MGMT-negative cell lines = experiment: Colony formation assay, MGMT-negative breast cancer cell lines (summary); type: cell-based, human
Experimental: as §1

Lipophilicity = type: physicochemical; details: data not shown; in words
γ-H2AX [4] = experiment: Western blot of DNA damage marker in MDA-MB-231 cells; type: cell-based, human; details: MDA-MB-231, 50 μM, time course of 72 hours; in words
Experimental: as §3, §4

[5] = low micromolar concentrations, 48 hours, in words

Compound | IC50 (a variant of MDA-MB-231) | IC50 (HCC-1937) | half-life [1] | IC50 (T47D; T47D) | drug levels in the cerebrospinal fluid (CSF) lower than in plasma [2] | cytotoxicity (MTT assay) (U87 human glioma cells) | IC50 (231-MGMT-1) | phosphorylation of H2AX (γ-H2AX [3]; without O6-BG) | levels of γ-H2AX (γ-H2AX [3]; pre-treated with O6-BG (30 μM)) | concentration at which activation of the proapoptic protein CHOP was shown (as low as) (CHOP; 18 hr treatment) | ER stress (ERS) (CHOP; TMZ sensitive and resistant U251, 18 hr, in words) | Differential (−fold) (HCC-1937; fold increase in potency of TMZ-POH compared to TMZ, HCC-1937) | colony formation (CFA) (HCC-1937; [5]) | IC50 (MGMT-negative cell lines; Homo sapiens, range over MGMT-negative cell lines) | active in the range of (MGMT-negative cell lines; MGMT-negative cells) | lipophilicity (Lipophilicity) | levels of γ-H2AX (γ-H2AX [4]) | Differential (−fold) (T47D; fold increase in potency of TMZ-POH compared to TMZ, T47D) | colony formation (CFA) (T47D; [5]) | Differential (−fold) (231-MGMT-1; fold increase in potency of TMZ-POH compared to TMZ, 231-MGMT-1)
Cn1nnc2c(C(N)=O)ncn2c1=O [TMZ, temozolomide, reference compound] | < 10 µM | 186 µM | 1 to 2 h | 20 µM | 80% | minimal cytotoxicity | 202 µM | – | – | – | – | – | – | – | – | – | – | – | – | –
C=C(C)[C@@H]1CC=C(COC(=O)NC(=O)c2ncn3c(=O)n(C)nnc23)CC1 [TMZ-POH] | – | 31 µM | – | 4.6 µM | – | substantially higher kill rates | 27 µM | no increased phosphorylation of H2AX | increased levels of γ-H2AX became readily apparent | 60 µM | induces ER stress | 6.0 −fold | prevented colony formation | 1.2 to 4.6 µM | 1 to 5 µM | increased over TMZ | substantially increased levels of γ-H2AX; also recorded: much stronger as compared to TMZ | 4.3 −fold | prevented colony formation | 7.5 −fold
